Assay results from patent US7947284B2, “Purified component of blue-green algae and method of use” (Desert Lake Technologies, priority 2005, dated 2011).

System: CXCR4 expression on the human CD34+ cell line KG-1a
Experiment: Fucoidan-induced CXCR4 expression on KG-1a cells (flow cytometry)
Type: cell-based
Settings: KG-1a incubated with the agonist alone
From the text: Immunostaining for CXCR4 expression induced by L-selectin ligands: The binding of Fucoidan to L-selectin results in externalization of pre-made CXCR4 onto the cell surface, followed by internalization, creating a window in time for responsiveness to chemotactic factors. This system was used to examine whether AFA-W would compete with Fucoidan for binding to L-selectin on the leukocyte cell surface, and to assess whether it would block this functional effect from another L-selectin ligand. To do so, freshly purified human PBMC were resuspended in RPMI, and distributed in a series of round-bottom microwells. Fucoidan was added to one series of wells, AFA-W to another series, and a mixture of Fucoidan and AFA-W was added to the third series of wells. […] Cells were washed in phosphate-buffered saline containing azide, stained with CXCR4-PE using the staining protocol described above, fixed in formalin, and analyzed by flow cytometry.
The primitive cell line KG-1a is brightly positive for CD34 and for L-selectin, as evaluated by staining with the TQ1 monoclonal antibody. […]
The expression of CXCR4 receptors following exposure to fucoidan was evaluated on lymphocytes using flow cytometry.

## Fucoidan
  effect on expression of the chemokine receptor CXCR4: triggers the expression
